For 34 molecules, Emax and EC50 results are on record in patent US8394969B2, “Cyclic benzimidazole derivatives useful as anti-diabetic agents” (Merck Sharp & Dohme Corp., priority 2008, dated 2013).

The target in this experiment is recombinant human AMPK complex 1 (containing α1β1γ1) (Homo sapiens, UniProt Q13131+Q9Y478). In words: […] (in vitro AMPK activation assay). The class given is biochemical. The note with it: recombinant human AMPK complex 1 (α1β1γ1); for Emax: basal activity subtracted, read-out: % Maximum AMP Activation of human AMPK Complex 1; for pEC50: read-out: EC50.
recombinant human AMPK complex 1 (containing α1β1γ1), sequence (Q13131 whole entry): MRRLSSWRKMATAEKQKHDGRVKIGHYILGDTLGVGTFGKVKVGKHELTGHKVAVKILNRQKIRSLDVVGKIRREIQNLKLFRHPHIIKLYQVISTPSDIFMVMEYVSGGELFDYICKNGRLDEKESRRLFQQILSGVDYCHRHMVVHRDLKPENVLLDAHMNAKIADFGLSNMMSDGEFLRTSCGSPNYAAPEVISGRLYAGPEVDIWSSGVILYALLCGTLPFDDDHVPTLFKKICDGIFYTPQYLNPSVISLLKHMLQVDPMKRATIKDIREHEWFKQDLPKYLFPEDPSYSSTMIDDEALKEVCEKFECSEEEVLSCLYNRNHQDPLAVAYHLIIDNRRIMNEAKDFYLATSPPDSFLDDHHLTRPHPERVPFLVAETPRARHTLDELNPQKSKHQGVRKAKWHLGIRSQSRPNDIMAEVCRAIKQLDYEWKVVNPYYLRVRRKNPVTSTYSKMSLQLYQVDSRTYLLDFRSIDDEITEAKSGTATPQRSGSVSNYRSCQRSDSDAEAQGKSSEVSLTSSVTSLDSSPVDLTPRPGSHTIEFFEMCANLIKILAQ
recombinant human AMPK complex 1 (containing α1β1γ1), sequence (Q9Y478 whole entry): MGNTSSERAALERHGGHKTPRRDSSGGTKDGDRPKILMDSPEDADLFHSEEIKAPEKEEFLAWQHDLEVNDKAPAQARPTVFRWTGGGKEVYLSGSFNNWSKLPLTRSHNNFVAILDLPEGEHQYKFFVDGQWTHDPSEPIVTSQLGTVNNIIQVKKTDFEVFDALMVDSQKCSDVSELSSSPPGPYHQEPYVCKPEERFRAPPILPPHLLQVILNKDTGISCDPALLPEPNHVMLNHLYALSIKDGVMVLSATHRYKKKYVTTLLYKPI
recombinant human AMPK complex 1 (containing α1β1γ1), sequence (P54619 whole entry partner): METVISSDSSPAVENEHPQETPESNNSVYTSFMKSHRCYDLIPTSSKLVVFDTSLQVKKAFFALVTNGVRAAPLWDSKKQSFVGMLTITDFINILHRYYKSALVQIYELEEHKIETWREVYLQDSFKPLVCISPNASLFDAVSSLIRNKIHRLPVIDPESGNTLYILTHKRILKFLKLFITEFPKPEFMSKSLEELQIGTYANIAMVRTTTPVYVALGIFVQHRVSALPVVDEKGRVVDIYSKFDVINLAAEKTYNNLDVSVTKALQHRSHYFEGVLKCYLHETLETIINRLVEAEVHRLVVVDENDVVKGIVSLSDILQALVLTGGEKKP

Structures are written as SMILES. pEC50: −log10 of the molar value. Counter-ions that a name gives are not always drawn. Some results are limits rather than exact numbers.

The pEC50 is −log10 of the EC50, conventionally taken in molar units.

Consider `Cc1ccc(Oc2nc3cc(C4=CCN(c5ncccn5)CC4)c(Cl)cc3[nH]2)cc1C(=O)O` [Example 158, 2-(3-carboxy-4-methylphenoxy)-6-chloro-5-(1-pyrimidin-2-yl-1,2,3,6-tetrahydropyridin-4-yl)-1H-3,1-benzimidazol-3-ium trifluoroacetate], for which the Emax is more than 80%. On the same count and under the same terms, the figure for `Cc1ccc(Oc2nc3cc(-c4cnn(CC(C)C)c4)c(Cl)cc3[nH]2)cc1C(=O)O` [Example 159, 5-[6-Chloro-5-(1-isobutyl-1H-pyrazol-4-yl)-1H-benzoimidazol-2-yloxy]-2-methyl-benzoic acid] is more than 80%; for `Cc1ccc(Oc2nc3cc(-c4cn[nH]c4)c(Cl)cc3[nH]2)cc1C(=O)O` [Example 160, 5-[6-Chloro-5-(1H-pyrazol-4-yl)-1H-benzoimidazol-2-yloxy]-2-methyl-benzoic acid] it is more than 80%. Turning to `Cc1ccc(Oc2nc3cc(-c4ccc(-c5ccc[n+]([O-])c5)cc4)c(Cl)cc3[nH]2)cc1C(=O)O` [Example 161, 5-{6-Chloro-5-[4-(1-oxy-pyridin-3-yl)-phenyl]-1H-benzoimidazol-2-yloxy}-2-methyl-benzoic acid], the Emax is more than 80%.

For `Cc1ccc(Oc2nc3cc(-c4ccc(-c5ccc(=O)n(C(F)F)c5)cc4)c(Cl)cc3[nH]2)cc1C(=O)O` [Example 162, 5-{6-Chloro-5-[4-(1-difluoromethyl-6-oxo-1,6-dihydro-pyridin-3-yl)-phenyl]1H-benzoimidazol-2-yloxy}-2-methyl-benzoic acid], the Emax was more than 80%. The same measure, in the same setting: the figure for `COC(=O)c1cc(Oc2nc3cc(-c4ccc(-c5ccc(=O)n(C(F)F)c5)cc4)c(Cl)cc3[nH]2)ccc1C` [Example 163, 5-{6-Chloro-5-[4-(1-difluoromethyl-6-oxo-1,6-dihydro-pyridin-3-yl)-phenyl]-1H-benzoimidazol-2-yloxy}-2-methyl-benzoic acid methyl ester] is more than 80%; for `COC(=O)c1cc(Oc2nc3cc(-c4ccc(-c5ccccn5)cc4)c(Cl)cc3[nH]2)ccc1C` [Example 165, 5-[6-Chloro-5-(4-pyridin-2-yl-phenyl)-1H-benzoimidazol-2-yloxy]-2-methyl-benzoic acid methyl ester] it is more than 80%; for `Cc1ccc(Oc2nc3cc(-c4ccc(-c5ccccn5)cc4)c(Cl)cc3[nH]2)cc1C(=O)O` [Example 166, 5-[6-Chloro-5-(4-pyridin-2-yl-phenyl)-1H-benzoimidazol-2-yloxy]-2-methyl-benzoic acid] it is more than 80%. Still for that read-out and setting: the figure for `COC(=O)c1cc(Oc2nc3cc(-c4ccc(-c5ccncc5)cc4)c(Cl)cc3[nH]2)ccc1C` [Example 167, 5-[6-Chloro-5-(4-pyridin-4-yl-phenyl)-1H-benzoimidazol-2-yloxy]-2-methyl-benzoic acid methyl ester] is more than 80%. For the molecule `Cc1ccc(Oc2nc3cc(-c4ccc(-c5ccncc5)cc4)c(Cl)cc3[nH]2)cc1C(=O)O` [Example 168], the pEC50 was 8.30. For `Cc1ccc(Oc2nc3cc(-c4ccc(-c5cccnc5)cc4)c(Cl)cc3[nH]2)cc1C(=O)O` [Example 169, 5-[6-Chloro-5-(4-pyridin-3-yl-phenyl)-1H-benzoimidazol-2-yloxy]-2-methyl-benzoic acid], the Emax was more than 80%. In the case of `COC(=O)c1cc(Oc2nc3cc(-c4ccc(-c5ccc(=O)n(C)c5)cc4)c(Cl)cc3[nH]2)ccc1C` [Example 170, 5-{6-Chloro-5-[4-(1-methyl-6-oxo-1,6-dihydro-pyridin-3-yl)-pheny1]-1H-benzoimidazol-2-yloxy}-2-methyl-benzoic acid methyl ester], the Emax was more than 80%. Same read-out and setting: for `COC(=O)c1cc(Oc2nc3cc(-c4ccc(-c5cccnc5)cc4)c(Cl)cc3[nH]2)ccc1C` [Example 171, 5-[6-Chloro-5-(4-pyridin-3-yl-phenyl)-1H-benzoimidazol-2-yloxy]-2-methyl-benzoic acid methyl ester] the value was more than 80%; for `COc1ccc(-c2ccc(-c3cc4nc(Oc5ccc(C)c(C(=O)O)c5)[nH]c4cc3Cl)cc2)cc1` [Example 172, 5-[6-Chloro-5-(4′-methoxy-biphenyl-4-yl)-1H-benzoimidazol-2-yloxy]-2-methyl-benzoic acid], more than 80%.

For the molecule `Cc1ccc(Oc2nc3cc(-c4ccc(N5CCOCC5)nc4)c(Cl)cc3[nH]2)cc1C(=O)O` [Example 173, 5-[6-Chloro-5-(6-morpholin-4-yl-pyridin-3-yl)-1H-benzoimidazol-2-yloxy]-2-methyl-benzoic acid], the Emax is more than 80%. As to `Cc1ccc(Oc2nc3cc(-c4ccc(N5CCNCC5)nc4)c(Cl)cc3[nH]2)cc1C(=O)O` [Example 174, 5-[6-Chloro-5-(6-piperazin-1-yl-pyridin-3-yl)-1H-benzoimidazol-2-yloxy]-2-methyl-benzoic acid], the Emax is more than 80%.

With `Cc1ccc(Oc2nc3cc(-c4ccc(N5CCN(C(=O)OC(C)(C)C)CC5)nc4)c(Cl)cc3[nH]2)cc1C(=O)O` [Example 175, 4-{5-[2-(3-Carboxy-4-methyl-phenoxy)-6-chloro-1H-benzoimidazol-5-yl]-pyridin-2-yl}-piperazine-1-carboxylic acid tert-butyl ester], the Emax was more than 80%.

With `Cc1ccc(Oc2nc3cc(-c4ccc(-c5nnn[nH]5)cc4)c(Cl)cc3[nH]2)cc1C(=O)O` [Example 176, 5-{6-Chloro-5-[4-(1H-tetrazol-5-yl)-phenyl]-1H-benzoimidazol-2-yloxy}-2-methyl-benzoic acid], the Emax was more than 80%. `Cc1ccc(Oc2nc3cc(-c4ccc(/C(N)=N/O)cc4)c(Cl)cc3[nH]2)cc1C(=O)O` [Example 177, 5-{6-Chloro-5-[4-(N-hydroxycarbamimidoyl)-phenyl]-1H-benzoimidazol-2-yloxy}-2-methyl-benzoic acid]: the Emax is more than 80%.

For `Cc1ccc(Oc2nc3cc(-c4ccc(N5CCNCC5)cc4)c(Cl)cc3[nH]2)cc1C(=O)O` [Example 178, 5-[6-Chloro-5-(4-piperazin-1-yl-phenyl)-1H-benzoimidazol-2-yloxy]-2-methyl-benzoic acid], the Emax is more than 80%. Regarding `Cc1ccc(Oc2nc3cc(-c4ccc(N5CCOCC5)cc4)c(Cl)cc3[nH]2)cc1C(=O)O` [Example 179, 5-[6-Chloro-5-(4-morpholin-4-yl-phenyl)-1H-benzoimidazol-2-yloxy]-2-methyl-benzoic acid], the Emax is more than 80%. As to `Cc1ccc(Oc2nc3cc(-c4ccc(C#N)cc4)c(Cl)cc3[nH]2)cc1C(=O)O` [Example 180, 5-[6-Chloro-5-(4-cyano-phenyl)-1H-benzoimidazol-2-yloxy]-2-methyl-benzoic acid], the Emax was more than 80%. On the same count and under the same terms, the figure for `Cc1ccc(Oc2nc3cc(C#Cc4ccc(C(=O)O)cc4)c(Cl)cc3[nH]2)cc1C(=O)O` [Example 181, 5-[5-(4-Carboxy-phenylethynyl)-6-chloro-1H-benzoimidazol-2-yloxy]-2-methyl-benzoic acid] is more than 80%. On to `Cc1ccc(Oc2nc3cc(-c4ccc(C(C)(C)O)cc4)c(Cl)cc3[nH]2)cc1C(=O)O` [Example 183, 5-({6-chloro-5-[4-(1-hydroxy-1-methylethyl)phenyl]-1H-benzimidazol-2-yl}oxy)-2-methylbenzoic acid], for which the pEC50 is 7.80. Turning to `Cc1ccc(Oc2nc3cc(-c4ccc(-c5ccc(C(=O)O)cc5)cc4)c(F)cc3[nH]2)cc1C(=O)O` [Example 184, 4′-[2-3-carboxy-4-methylphenoxy-6-fluoro-1H-benzimidazol-5-yl]biphenyl-4-carboxylic acid], the pEC50 is 8.10. For `Cc1ccc(Oc2nc3cc(-c4ccc(-c5cccc(F)c5)cc4)c(Cl)cc3[nH]2)cc1C(=O)O` [Example 185, 5-{[6-chloro-5-(3′-fluorobiphenyl-4-yl)-1H-benzimidazol-2-yl]oxy}-2-methylbenzoic acid], the Emax was more than 80%. On the same count and under the same terms, for `Cc1ccc(Oc2nc3cc(-c4ccc(-c5cccc(Cl)c5)cc4)c(Cl)cc3[nH]2)cc1C(=O)O` [Example 186, 5-{[6-chloro-5-(3′-chlorobiphenyl-4-yl)-1H-benzimidazol-2-yl]oxy}-2-methylbenzoic acid] the value was more than 80%; for `COc1cccc(-c2ccc(-c3cc4nc(Oc5ccc(C)c(C(=O)O)c5)[nH]c4cc3Cl)cc2)c1` [Example 187, 5-{[6-chloro-5-(3′-methoxybiphenyl-4-yl)-1H-benzimidazol-2-yl]oxy}-2-methylbenzoic acid], more than 80%; for `Cc1ccc(Oc2nc3cc(-c4ccc(-c5ccc(O)nc5)cc4)c(Cl)cc3[nH]2)cc1C(=O)O` [Example 188, 5-({6-chloro-5-[4-(6-hydroxypyridin-3-yl)phenyl]-1H-benzimidazol-2-yl}oxy)-2-methylbenzoic acid], more than 80%.

On to `Cc1ccc(Oc2nc3cc(-c4ccc(-c5ccccc5Cl)cc4)c(Cl)cc3[nH]2)cc1C(=O)O` [Example 191, 5-{[6-chloro-5-(2′-chlorobiphenyl-4-yl)-1H-benzimidazol-2-yl]oxy}-2-methylbenzoic acid], for which the Emax was more than 80%.

As to `Cc1ccc(Oc2nc3cc(-c4ccc(-c5ccccc5F)cc4)c(Cl)cc3[nH]2)cc1C(=O)O` [Example 192, 5-{[6-chloro-5-(2′-fluorobiphenyl-4-yl)-1H-benzimidazol-2-yl]oxy}-2-methylbenzoic acid], the Emax was more than 80%. For the molecule `Cc1ccc(Oc2nc3cc(-c4ccc(-c5ccccc5C)cc4)c(Cl)cc3[nH]2)cc1C(=O)O` [Example 193, 5-{[6-chloro-5-(2′-methylbiphenyl-4-yl)-1H-benzimidazol-2-yl]oxy}-2-methylbenzoic acid], the Emax is more than 80%.

On to `COc1ccccc1-c1ccc(-c2cc3nc(Oc4ccc(C)c(C(=O)O)c4)[nH]c3cc2Cl)cc1` [Example 194, 5-{[6-chloro-5-(2′-methoxybiphenyl-4-yl)-1H-benzimidazol-2-yl]oxy}-2-methylbenzoic acid], for which the Emax is more than 80%. Still for that read-out and setting: the figure for `COC(=O)c1cc(Oc2nc3cc(-c4ccc(-c5ccccc5F)cc4)c(Cl)cc3[nH]2)ccc1C` [Example 195, Methyl 5-{[6-chloro-5-(2′-fluorobiphenyl-4-yl)-1H-benzimidazol-2-yl]oxy}-2-methylbenzoate] is more than 80%.
